According to patent publication US20260199371A1, “COORDINATION COMPOUND, COMPOSITIONS, AND USES THEREOF FOR TREATING CANCERS” (HUEIYUAN BIOTECH LLC, priority 2023, published 2026):

What was measured:
LoVo-parental cells [1] = test system: LoVo-parental cells
LoVo-OXAR cells [2] = test system: LoVo-OXAR cells
LoVo-parental cells [3] = details: single agent: compound (II) 500 μg/ml or oxaliplatin 50 μg/ml, 48 hours
LoVo-OXAR cells [4] = details: single agent: compound (II) 2000 μg/ml or oxaliplatin 50 μg/ml, 48 hours
LoVo-parental cells [5] = details: single agent: compound (II) 500 μg/ml or oxaliplatin 50 μg/ml, 72 hours
LoVo-OXAR cells [6] = details: single agent: compound (II) 2000 μg/ml or oxaliplatin 50 μg/ml, 72 hours

SMILES: O=C1[O][Pt]2([NH][C@@H]3CCCC[C@H]3[NH]2)[O]C1=O [oxaliplatin, reference compound]
- viability of LoVo-parental cells under oxaliplatin (LoVo-parental cells [1]; FIG. 2C): decreased the viability of both LoVo-parental and LoVo-OXAR cells in a dose-dependent manner
- IC50 of oxaliplatin in LoVo-parental cells (LoVo-parental cells [1]; MTT assay): about 15.0 μg/ml
- viability of LoVo-OXAR cells under oxaliplatin (LoVo-OXAR cells [2]; FIG. 2C): decreased the viability of both LoVo-parental and LoVo-OXAR cells in a dose-dependent manner
- IC50 of oxaliplatin in LoVo-OXAR cells (LoVo-OXAR cells [2]; MTT assay): about 65 μg/ml
- migration rate of LoVo-parental cells (LoVo-parental cells [3]): significantly decreased
- migration rate of LoVo-OXAR cells (LoVo-OXAR cells [4]): significantly decreased
- invasion rate of LoVo-parental cells (LoVo-parental cells [5]): significantly decreased
- invasion rate of LoVo-OXAR cells (LoVo-OXAR cells [6]): significantly decreased
